Bridges are numbered along the chain shown (N, C = ends). Where no end group is shown, it is not given here.
What was measured:
[1] = system: auditory nerve and generators caudal to the IC; assay: Auditory brainstem responses (ABR); assay type: in vivo, mouse
Method: (§1) The temperature was maintained near 25 °C.
ABR recordings were acquired after the mice were anesthetized with ketamine (120 mg/kg) and xylazine (10 mg/kg) I.P., and respiration was monitored throughout to determine when additional supplemental doses were needed. Body temperature was kept constant at 37 °C using a feedback controlled heating pad (Physitemp TCAT2-LV Controller, Clifton, NJ). Stimuli and recordings were generated digitally and controlled using a TDT RZ6 Multi-I/O Processor and their BioSig/SigGen software. Acoustic signals were played through a multi-field (MF1) magnetic speaker (TDT, Alachua, FL) with a total harmonic distortion < = 1% from 1 kHz to 50 kHz, centered 0° azimuth in regards to the animal at a distance of 10 cm from the ear pinna. Tone bursts were presented at frequencies of 6, 12, 16, 20, 24, and 36 kHz (3 ms duration, 1 ms rise/fall time, alternating polarity) at a rate of 29 per second, attenuated in 5 dB steps from 80 dB SPL to 15 dB below threshold or 5 dB SPL, whichever was lower. Threshold was determined by visual inspection as the lowest intensity level which produced a defined wave in both replicates. All signals were calibrated using a Larsen Davis preamplifier, model 2221, with a 1/4″ microphone and a Larson Davis CAL200 Precision Acoustic Calibrator (PCB Piezotronics, Inc., Depew, NY). ABR recordings were acquired using a TDT RA4LI low-impedance digital headstage and RA4PA Medusa preamp with the active (noninverting) electrode inserted at the vertex, the reference (inverting) electrode below the left ear, and the ground electrode below the right ear. The responses were amplified (20×), filtered (300 Hz–3 kHz), and averaged using BioSig software and the System III hardware (TDT) data-acquisition system. A total of 256 tone burst signal and 150 GIN signal recordings were replicated for each acquisition, and muscle artifacts exceeding 7 μV were rejected from the averaged response. All recordings took place in a soundproof booth lined with echo-attenuating acoustic foam. ABR waveforms were analyzed using a custom MatLab program that automatically determined peak latencies and amplitudes in combination with secondary verification by an experimenter blind to the treatment group.

[2] = Blood-brain barrier crossing inferred from functional activity in the IC; assay type: in vivo, mouse; conditions: inferred from suppression of sound evoked activity after topical (dura) or systemic (0.3 mg/kg I.P.) administration
Method: as §1

[3] = system: BK channel; conditions: small molecule BK channel blocker; cited from earlier work
Source text: CNS pharmacological applications favor pharmaceutical agents with high affinity, specificity, amenability to large-scale synthesis and BBB permeability. Peptide drugs have the potential for high affinity and specific binding to ion channel targets, as shown by voltage-gated potassium channel (Kv) peptide toxins. In addition to natural products, phage display screens have successfully selected peptides with high target affinity. For example, a phage display screen of scorpion toxin derivatives selected a novel peptide that blocks the Kv3.1 channel in the nanomolar range[41]. Here, a phage displ ...

[4] = system: mouse inferior colliculus (auditory midbrain); assay: Sound evoked activity within excitatory receptive field (eRF), topical application on dura
[5] = cited from earlier work
Source text: A pharmacological agent must cross the BBB in order to act at CNS-located targets. […] Many ion channel-targeted peptides are regarded as having low BBB permeability due to the large difference between the lethal dose when administered peripherally versus centrally. For example, the LD50 for peripherally administered dendrotoxin is in the tens of mg/kg, while it is ten thousand fold l ...

[6] = target: T1, human BKα channel (ZERO isoform) expressed in HEK293 cells (Homo sapiens, UniProt Q12791); assay: Patch-clamp recording, inside-out patches, extracellular application; assay type: cell-based; conditions: for effect on Po (post vs. pre peptide): 500 nM linear (reduced) LS3, extracellular, any voltage, compared with 500 nM cyclic LS3
T1 construct: expressed in transfected cells; host or cells: HEK293 (ATCC), transient transfection with Lipofectamine 2000; EGFP cotransfected as a separate marker
Method: HEK293 cells (ATCC, Manassas, VA) were grown according to standard procedures. Cells were cultured at 37 °C in a 5% CO2 atmosphere in Dulbecco’s modified Eagle’s medium with L-glutamine, sodium pyruvate and 10% fetal bovine serum (Invitrogen). Cell lines were split with trypsin/EDTA in Hanks’ balanced salt solution (Invitrogen) up to 25–30 cycles. For phage display, stable lines stably expressed rSK2 or hBKα ZERO isoform. Cells were transfected (Lipofectamine 2000, Invitrogen) with hGlyRα1 and used 48 hours later. For electrophysiological recordings, cells were transfected with hBKα ZERO isoform. Enhanced green fluorescent protein (EGFP) was cotransfected as a marker. Electrophysiological recordings were made 16–72 h after transfection. Although the profile of BK channel composition varies from tissue to tissue, the ZERO BK channel splice variant is widely expressed, particularly in the nervous system, serving as a representative form for studying the modulation of BK channel gating.
Voltage-clamp recordings were performed at room temperature (22–24 °C) using an inside-out configuration on patches pulled from HEK293 cells. The extracellular solution contained the following (in mM): 2 KCl, 136 KOH, 20 HEPES, 2 MgCl2, adjusted to pH 7.2 with MeSO3H. In order to apply peptide to the extracellular surface, patch electrodes (7–20 MΩ in resistance) were tip-filled with normal extracellular solution and backfilled with extracellular solution containing LS3. Enough normal extracellular solution was included to provide at least five minutes of peptide-free recording (determined by plotting Po vs. time). The intracellular solution (in the bath) contained the following (in mM): 6 KCl, 132 KOH, 20 HEPES, adjusted to pH 7.2 with MeSO3H. To achieve 750 nM free Ca^2+, […] and 5 mM EGTA were included, a ratio verified by measurement with a Ca^2+-sensitive electrode. Voltage-clamp recordings made with an Axopatch 200 A amplifier and custom macros in IgorPro. Analysis was performed with QUB (http://www.qub.buffalo.edu), including Po, mean open time and three component exponential fits to closed dwell times. Group means±SEM for post-peptide measures were plotted relative to pre-peptide values and compared with pre values via planned paired t-tests.

[7] = target: T2, human BKα channel (ZERO isoform) (human) (UniProt O95259)
T2 sequence: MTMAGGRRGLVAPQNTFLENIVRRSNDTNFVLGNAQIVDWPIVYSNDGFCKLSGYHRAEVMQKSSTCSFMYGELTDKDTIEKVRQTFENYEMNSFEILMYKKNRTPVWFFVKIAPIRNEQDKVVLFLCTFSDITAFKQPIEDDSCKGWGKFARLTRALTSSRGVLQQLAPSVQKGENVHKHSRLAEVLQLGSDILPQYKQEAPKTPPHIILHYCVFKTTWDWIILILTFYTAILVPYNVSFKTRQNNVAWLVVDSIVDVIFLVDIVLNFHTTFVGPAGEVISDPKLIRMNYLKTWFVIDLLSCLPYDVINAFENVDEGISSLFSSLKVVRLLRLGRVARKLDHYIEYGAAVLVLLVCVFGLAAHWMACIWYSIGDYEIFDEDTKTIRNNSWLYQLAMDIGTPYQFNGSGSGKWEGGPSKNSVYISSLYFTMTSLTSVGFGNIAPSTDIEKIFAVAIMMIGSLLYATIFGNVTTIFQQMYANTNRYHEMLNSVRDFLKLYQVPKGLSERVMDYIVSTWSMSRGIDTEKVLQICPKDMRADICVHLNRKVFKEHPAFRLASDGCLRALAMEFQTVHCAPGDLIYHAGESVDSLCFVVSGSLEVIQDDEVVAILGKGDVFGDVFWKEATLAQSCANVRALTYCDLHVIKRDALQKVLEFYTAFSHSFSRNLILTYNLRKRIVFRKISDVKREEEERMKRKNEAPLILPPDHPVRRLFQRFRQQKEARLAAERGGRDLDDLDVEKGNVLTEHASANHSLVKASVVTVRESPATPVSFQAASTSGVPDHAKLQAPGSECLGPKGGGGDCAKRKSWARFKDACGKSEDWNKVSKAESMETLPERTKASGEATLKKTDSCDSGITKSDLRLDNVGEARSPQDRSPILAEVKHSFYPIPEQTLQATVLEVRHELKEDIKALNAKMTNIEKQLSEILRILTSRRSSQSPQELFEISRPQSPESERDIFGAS

[8] = target: comprehensive panel of mammalian CNS-based proteins; assay: radioligand binding; competition binding assays (NIMH PDSP): 10 microM LS3 against known radioligands for 33 targets; percent inhibition measured 4 times for each receptor; less than 50% inhibition considered insignificant

T1 sequence (Q12791 1-1178 isoform Q12791-5): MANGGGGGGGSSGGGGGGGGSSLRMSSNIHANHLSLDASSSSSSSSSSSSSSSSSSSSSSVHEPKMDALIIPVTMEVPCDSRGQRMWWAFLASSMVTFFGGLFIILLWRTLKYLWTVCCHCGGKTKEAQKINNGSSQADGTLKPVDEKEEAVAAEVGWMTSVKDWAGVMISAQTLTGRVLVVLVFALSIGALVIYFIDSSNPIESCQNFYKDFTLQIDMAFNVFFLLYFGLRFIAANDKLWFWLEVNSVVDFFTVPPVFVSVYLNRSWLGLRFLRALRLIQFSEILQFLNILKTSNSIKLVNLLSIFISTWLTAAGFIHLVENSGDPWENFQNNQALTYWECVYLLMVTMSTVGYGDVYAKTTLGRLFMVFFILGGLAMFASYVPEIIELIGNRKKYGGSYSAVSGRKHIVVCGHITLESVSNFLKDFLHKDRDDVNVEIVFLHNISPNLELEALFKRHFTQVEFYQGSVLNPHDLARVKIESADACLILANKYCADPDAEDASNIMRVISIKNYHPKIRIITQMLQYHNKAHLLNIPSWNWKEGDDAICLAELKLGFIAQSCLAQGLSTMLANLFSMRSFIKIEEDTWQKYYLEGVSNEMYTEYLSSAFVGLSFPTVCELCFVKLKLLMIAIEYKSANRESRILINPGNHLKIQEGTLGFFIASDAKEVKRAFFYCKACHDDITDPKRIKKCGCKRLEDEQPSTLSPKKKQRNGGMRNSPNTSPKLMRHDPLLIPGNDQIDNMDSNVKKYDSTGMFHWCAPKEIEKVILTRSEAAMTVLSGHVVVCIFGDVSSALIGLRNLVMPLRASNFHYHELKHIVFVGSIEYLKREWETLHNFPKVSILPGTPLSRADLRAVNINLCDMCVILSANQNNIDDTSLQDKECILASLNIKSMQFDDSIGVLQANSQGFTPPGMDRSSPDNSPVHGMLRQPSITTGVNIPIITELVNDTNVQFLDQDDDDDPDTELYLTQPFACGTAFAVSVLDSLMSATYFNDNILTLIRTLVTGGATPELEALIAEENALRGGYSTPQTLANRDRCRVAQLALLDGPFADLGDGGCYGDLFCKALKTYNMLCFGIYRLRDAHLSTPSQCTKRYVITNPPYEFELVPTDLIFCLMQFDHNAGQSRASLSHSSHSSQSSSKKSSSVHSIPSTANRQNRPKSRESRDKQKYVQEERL

CC(C)(O)[C@H]1O[C@H]2CC[C@@]3(C)[C@@](O)(CC[C@H]4Cc5c([nH]c6ccccc56)[C@@]43C)C2=CC1=O [paxilline, reference compound]
mean ABR thresholds ([1]; 4 hours post I.P. injection vs. baseline, tone bursts): No significant effect
ABR peak 1 (P1) amplitude by intensity functions ([1]; systemic (I.P.) injection, 4 hrs vs. baseline, auditory nerve): Neither BK channel modulator reduced auditory nerve (P1)
ABR peak 4 (P4) amplitude by intensity functions ([1]; systemic (I.P.) injection, 4 hrs vs. baseline, generators caudal to the IC (brainstem)): Neither BK channel modulator reduced auditory nerve (P1) or brainstem (P4) amplitudes
ability to cross the BBB [2]: can cross the BBB
IC50 (BK channel block) [3]: low nanomolar
time course of suppression of sound evoked activity ([4]; 1 μL of 10 μM paxilline, 51 units, F(12,430) = 4.146 P < 0.0001): suppression of sound evoked activity increasing out to 6 hours
reduction in sound driven activity ([4]; 1 μL of 10 μM paxilline, 5 hours post-application, N = 5 mice): 87%
reduction of maximum spike counts ([4]; 1 μL of 10 μM paxilline, within 30 minutes, 51 units): 50%
maximum spike counts ([4]; 1 μL of 10 μM paxilline, within 30 minutes, baseline 375, 51 units): 180 spikes
reduction of sound evoked driven activity within the RF ([4]; 1 μL of 10 μM stock, from baseline pre-peptide, Fig. 5A,B representative eRFs): approximately 50%

apamin: a small Kv toxin at 18 aa (CNCKAPETALCARRCQQH-NH2; disulfide 1-11, 3-15; ends not checked; UniProt P01500 28-45, looked up)
CNS availability ([5]; in contrast to many ion channel-targeted peptides): higher CNS availability
effect on learning and memory-related behaviors ([5]; intraperitoneal injection at a similar concentration used in this paper): alter learning and memory-related behaviors

dendrotoxin
LD50, intraventricular injection, relative to peripheral [5]: ten thousand fold lower
LD50, peripherally administered [5]: tens

linearized version of LS3: linearized version of LS3 without the disulfide bridge (CRRGLVQVC)
effect on Po (post vs. pre peptide) [6]: no significant reduction in Po at any voltage
effect on Po (post vs. pre peptide) ([6]; listed as linear peptide): lack of effect
effect on Po (post vs. pre peptide) ([6]; listed as reduced form of LS3): did not alter Po
potency relative to cyclic LS3 ([6]; linearized version without the disulfide bridge, Po): less potent

B1: LS3 (… with a 1–9 disulfide bridge) (peptide)
peptide: CRRGLVQVC
modifications: disulfide 1-9
post-peptide Po relative to pre-peptide Po at 40 mV, 500 nM LS3 [7]: 0.54
Ki [8]: > 10 µM
percent inhibition of radioligand binding at 10 microM LS3 [8]: < 50%
